Results published in PMC13081163, “Discovery of a novel Nrf2 activator that modulates mitochondrial function in neurons by regulating DHRS3-Nrf2 interaction after ischemic stroke” (Theranostics, 2026).

Columns and labels:
[1] = system: ARE-luciferase reporter (Nrf2 activation), Hek-293T cells; assay: ARE-luciferase reporter gene assay; assay type: cell-based; settings: Homo sapiens
Procedure: The Hek-293T cells were cultured in 96-well plates 24 h before transfection with ARE-luciferase reporter plasmid (11548ES03, Yeasen, China) for 48 h according to the manufacturer's instructions. The Firefly luciferase activities was carried out 12 h after the drug treatment, as described by the manufacturer (11412ES81, Yeasen, China).

[2] = Microsomal metabolic stability, rat; assay type: in vitro ADME; settings: rat liver microsomes
Procedure: (§1) The liver microsomal incubation system comprised human, dog, or rat liver microsomal protein (0.75 mg/mL), nicotinamide adenine dinucleotide phosphate (NADPH) generation system, potassium phosphate buffer (0.1 M, pH 7.4), substrate, and inhibitor. The assay was conducted by first preparing a potassium phosphate buffer. Compounds and liver microsomes were then diluted and pre-incubated at 37 °C before initiating the reaction with NADPH. Aliquots were quenched with acetonitrile containing internal standard at specified time points. After sample processing (shaking and centrifugation), the supernatants were analyzed by LC-MS/MS to determine metabolic stability.

DHRS3-Nrf2 interaction = biological target: T1, DHRS3-Nrf2 interaction (Homo sapiens, UniProt O75911); assay: GST pull-down of Nrf2 and DHRS3; assay type: binding; settings: 100 nM, purified GST-tagged Nrf2 and DHRS3 proteins
T1 construct: purchased Ybio YB710012 (GST-Nrf2); YB765100 (DHRS3)
T1 sequence (O75911 1-302): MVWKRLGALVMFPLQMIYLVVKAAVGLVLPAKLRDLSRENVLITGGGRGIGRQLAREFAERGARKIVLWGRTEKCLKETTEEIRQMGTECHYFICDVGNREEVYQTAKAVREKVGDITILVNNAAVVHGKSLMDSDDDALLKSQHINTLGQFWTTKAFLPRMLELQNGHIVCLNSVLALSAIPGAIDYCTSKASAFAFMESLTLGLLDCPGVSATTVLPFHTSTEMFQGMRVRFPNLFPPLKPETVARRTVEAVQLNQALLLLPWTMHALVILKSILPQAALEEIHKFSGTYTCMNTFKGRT
Procedure: GST-Nrf2 (YB710012, Ybio, China) or GST (Ag0040, Proteintech, China, as control) proteins were mixed with GST Resin (EA-IP-K008, Elabscience Biotechnology, China) for 2 h incubation on the shaker at 4 °C. Subsequently, both Cpd.51 (100 nM) and DHRS3 (YB765100, Ybio, China) were added to the mixture and rotated overnight at 4 °C [40]. Then, following the instructions, the sample buffer was added and heated to 100 °C for 10 min. After completing all steps, the mixture was centrifuged, and the supernatant was collected for western blotting analysis.

[3] = In vitro hepatic microsomal stability, overall statement; assay type: in vitro ADME, human, dog, rat
Procedure: as §1

DHRS3 = assay: Western blotting of DHRS3 in SH-SY5Y cells after OGD/R; assay type: cell-based, human
Procedure: The western blotting analysis was conducted as we previously described. First, the total protein was extracted using RIRA buffer and then the protein concentrations were determined using the BCA kit (P0012, Beyotime, China). The extraction of mitochondrial proteins was carried out according to the instructions (C3601, Beyotime, China). The samples were separated electrophoretically and then wet-transferred onto 0.2 μm PVDF membranes (88520, Thermo Scientific, USA). After blocking with 5% non-fat dry milk in Tris-buffered saline (TBS) (pH 7.4) containing 0.1% Tween 20 at room temperature for 2 h, the protein membranes were sequentially immersed with the primary antibody at 4 °C overnight and secondary antibody at room temperature for 1 h. Finally, the membranes were quantified using image analysis system.

[4] = Acute (7-day i.v.) toxicity in rats; assay type: in vivo, rat; settings: 10 mg/kg i.v. daily for 7 days
Procedure: Cpd.51 was dissolved in solvent (10% DMSO, 10% Solutol HS-15 and 80% saline). It was injected (i.v.) at dose of 3 mg/kg or 5 mg/kg in a 0.5 mL volume. The Sham group and Vehicle group were treated simultaneously with an equal volume of solvent. In the experiment to explore the treatment time window, we merely administered the drug to the rats at different time points, while all other procedures remained unchanged. In the short-term toxicity study, 10 mg/kg Cpd.51 and Oma were administered via tail vein injection at 0.5 mL daily for 7 consecutive days.
Glutamic-pyruvic transaminase (GPT) kits (ml092635, mlbio, China), glutamic oxaloacetic transaminase (GOT) kits (ml092714, mlbio, China), creatinine (CRE) kits (M12C4L, mlbio, China) and blood urea nitrogen (BUN) kits (ml076479, China) were used to detect the serum of rats in order to evaluate liver and kidney functions. Male and female rats were randomly divided into Sham group, Cpd.51 group and Oma group. Doses were administered once daily at 10 mg/kg and body weights were recorded accordingly. Sham groups were given the same volume of solvent. After 7 days, the […] were sacrificed, serum was collected and tested according to the instructions.

Nrf2 = Nrf2 (Homo sapiens, UniProt Q14145); assay: Nrf2 nuclear translocation by immunofluorescence; assay type: cell-based; settings: 100 nM, SH-SY5Y cells and primary cortical neurons
Chain of Nrf2 (Q14145 whole entry): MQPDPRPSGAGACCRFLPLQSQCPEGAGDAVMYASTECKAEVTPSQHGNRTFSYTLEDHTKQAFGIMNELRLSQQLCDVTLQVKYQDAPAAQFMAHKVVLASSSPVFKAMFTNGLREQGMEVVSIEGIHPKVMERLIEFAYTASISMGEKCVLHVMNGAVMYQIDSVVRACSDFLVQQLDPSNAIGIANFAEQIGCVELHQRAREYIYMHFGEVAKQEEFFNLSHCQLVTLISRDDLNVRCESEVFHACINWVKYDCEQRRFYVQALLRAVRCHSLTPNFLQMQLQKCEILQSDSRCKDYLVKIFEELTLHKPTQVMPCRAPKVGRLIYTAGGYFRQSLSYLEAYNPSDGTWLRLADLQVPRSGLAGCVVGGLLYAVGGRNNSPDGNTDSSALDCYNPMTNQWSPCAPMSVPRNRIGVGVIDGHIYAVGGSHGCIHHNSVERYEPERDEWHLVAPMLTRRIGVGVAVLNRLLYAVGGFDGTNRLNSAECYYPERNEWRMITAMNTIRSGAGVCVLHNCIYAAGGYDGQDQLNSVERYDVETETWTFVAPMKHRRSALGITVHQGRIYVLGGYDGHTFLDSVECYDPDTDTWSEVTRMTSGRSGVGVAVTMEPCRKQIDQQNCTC
Chain of Nrf2 (Q16236 whole entry, further chain): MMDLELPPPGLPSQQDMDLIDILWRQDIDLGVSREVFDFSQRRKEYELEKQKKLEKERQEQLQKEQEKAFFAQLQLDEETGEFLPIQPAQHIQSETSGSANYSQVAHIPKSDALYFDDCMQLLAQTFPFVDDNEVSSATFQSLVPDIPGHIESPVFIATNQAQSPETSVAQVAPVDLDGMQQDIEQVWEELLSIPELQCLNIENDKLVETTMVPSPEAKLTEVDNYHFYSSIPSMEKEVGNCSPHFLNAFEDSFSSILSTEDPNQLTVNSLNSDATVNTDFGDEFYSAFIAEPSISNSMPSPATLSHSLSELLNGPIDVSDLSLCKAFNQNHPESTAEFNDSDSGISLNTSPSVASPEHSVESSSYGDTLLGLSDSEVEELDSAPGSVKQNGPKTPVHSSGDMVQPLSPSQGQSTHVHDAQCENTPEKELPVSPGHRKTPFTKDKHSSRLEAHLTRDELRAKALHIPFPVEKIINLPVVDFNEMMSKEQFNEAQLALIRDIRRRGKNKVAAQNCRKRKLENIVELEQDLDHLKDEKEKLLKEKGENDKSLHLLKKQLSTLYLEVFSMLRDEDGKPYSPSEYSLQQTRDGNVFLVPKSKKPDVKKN
Procedure: Immunostaining: cells were fixed with 4% paraformaldehyde for 20 min and then incubated with blocking solution (10% normal goat serum, 0.5% Triton X-100 in PBS) for 1 h at room temperature. Then, the samples were incubated overnight with primary antibodies: anti-Nrf2 (1:200, CST), anti-DHRS3 (1:300, Proteintech), anti-NeuN (1:500, Servicebio). When evaluating the extraction efficiency of primary cortical neurons, we performed co-staining with β-tubulin (1:200, Abcam) and Synaptophysin (1:300, ABclonal). After being washed with PBST three times, the samples were incubated with the corresponding secondary antibodies for 2 h in the dark. The nuclei were stained with DAPI (C1006-200mL, Beyotime, China) for 20 min. Finally, images were captured with a fluorescence microscope. Fluorescence integrated density was measured by ImageJ as previously described.

CC1(C)CCC2(C(=O)NO)CCC3(C)C(C(=O)C=C4C5(C)C=C(C#N)C(=O)C(C)(C)C5CCC43C)C2C1 (stereo not drawn) [Cpd.51]
EC50 ([1]; HEK-293T, cells transfected with NC-OE control plasmid): 56.7 nM | EC50 ([1]; Hek-293T cells, 12 h after drug treatment): 48.1 nM | Remainig (%, t = 60 min) [2]: 51.1% | CLint scaled ([2]; rat, pH 7.4): 41 mL/min/kg | half-life ([2]; rat, pH 7.4): 1.01 h | direct DHRS3-Nrf2 binding (GST pull-down) (DHRS3-Nrf2 interaction): significantly reduced | metabolic stability in microsomes [3]: moderate metabolic stability | DHRS3 protein expression induced by OGD/R (DHRS3): substantially attenuated this induction | liver hypertrophy, serum GPT and GOT [4]: not observed | serum CRE and BUN [4]: did not induce these changes | weight gain [4]: suppressed weight gain | Nrf2 nuclear translocation (Nrf2): Nrf2 nuclear translocation within 15 min
